Experimental findings from ChEMBL document CHEMBL5465560, “Selectivity Literature for EUbOPEN Chemogenomic Library” (2024) are described below.

Experiment [1] deals with Serine/threonine-protein kinase pim-2 (Homo sapiens, UniProt Q9P1W9). Briefly: Selectivity interaction (KinomeScan (DiscoverX)) EUB0000655a PIM2. The following applies: at 10 µM.
Experiment [2] addresses Mitogen-activated protein kinase kinase kinase 4 (Homo sapiens) (UniProt Q9Y6R4). The experiment in a line: Selectivity interaction (KinomeScan (DiscoverX)) EUB0000655a MAP3K4. To be noted: at 10 µM.
Experiment [3] concerns the target Receptor tyrosine-protein kinase erbB-4 (Homo sapiens, UniProt Q15303). The experiment in a line: Selectivity interaction (Kinase panel (literature)) EUB0001199aCl ERBB4. The following applies: at 1 µM.
Experiment [4] concerns the target T1, Dual specificity mitogen-activated protein kinase kinase 3 (Homo sapiens) (UniProt P46734).
T1 sequence (whole entry): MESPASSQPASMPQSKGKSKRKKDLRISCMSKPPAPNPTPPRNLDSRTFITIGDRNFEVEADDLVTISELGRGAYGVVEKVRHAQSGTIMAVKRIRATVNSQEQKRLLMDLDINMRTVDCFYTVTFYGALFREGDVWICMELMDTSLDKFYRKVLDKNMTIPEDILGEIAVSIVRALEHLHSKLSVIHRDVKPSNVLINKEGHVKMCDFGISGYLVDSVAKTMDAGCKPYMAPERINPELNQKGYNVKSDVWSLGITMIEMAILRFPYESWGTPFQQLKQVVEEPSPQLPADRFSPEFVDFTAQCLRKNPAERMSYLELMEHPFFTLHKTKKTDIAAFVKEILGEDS
The experiment in a line: Selectivity interaction (ActivX KiNativ screen (kinase selectivity in THP-1 cell lysates)) EUB0000639a MAP2K3. The format is subcellular. To be noted: lysate, at 0.01 µM.

The target of experiment [5] is Ribosomal protein S6 kinase alpha-2 (Homo sapiens) (UniProt Q15349). The experiment in a line: Selectivity interaction (Kinase panel (Invitrogen)) EUB0000639a RPS6KA2. To be noted: at 200 nM.
Sequence of Ribosomal protein S6 kinase alpha-2 (Homo sapiens) (Q15349 whole entry): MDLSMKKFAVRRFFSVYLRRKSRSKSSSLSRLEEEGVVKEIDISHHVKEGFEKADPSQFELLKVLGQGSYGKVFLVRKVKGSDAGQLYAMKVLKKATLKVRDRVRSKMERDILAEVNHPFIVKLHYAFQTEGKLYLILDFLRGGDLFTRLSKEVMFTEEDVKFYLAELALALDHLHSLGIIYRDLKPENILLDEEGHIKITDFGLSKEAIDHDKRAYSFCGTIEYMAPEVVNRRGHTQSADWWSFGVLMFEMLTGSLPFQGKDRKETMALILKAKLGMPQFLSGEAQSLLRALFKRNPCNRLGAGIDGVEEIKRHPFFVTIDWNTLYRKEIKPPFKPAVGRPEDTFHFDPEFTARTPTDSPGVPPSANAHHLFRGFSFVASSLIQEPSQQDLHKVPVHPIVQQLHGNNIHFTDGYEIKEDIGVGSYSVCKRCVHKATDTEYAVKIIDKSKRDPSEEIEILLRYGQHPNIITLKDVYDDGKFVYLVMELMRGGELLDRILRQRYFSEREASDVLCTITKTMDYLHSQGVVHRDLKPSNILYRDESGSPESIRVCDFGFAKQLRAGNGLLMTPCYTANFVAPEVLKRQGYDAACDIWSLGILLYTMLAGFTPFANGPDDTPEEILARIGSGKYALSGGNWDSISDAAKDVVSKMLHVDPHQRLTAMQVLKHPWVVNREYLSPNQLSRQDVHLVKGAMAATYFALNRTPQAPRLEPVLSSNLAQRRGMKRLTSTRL
In experiment [6] the target is Citron Rho-interacting kinase (Homo sapiens) (UniProt O14578). The following applies: at 10 µM.
Sequence of Citron Rho-interacting kinase (Homo sapiens) (O14578 whole entry): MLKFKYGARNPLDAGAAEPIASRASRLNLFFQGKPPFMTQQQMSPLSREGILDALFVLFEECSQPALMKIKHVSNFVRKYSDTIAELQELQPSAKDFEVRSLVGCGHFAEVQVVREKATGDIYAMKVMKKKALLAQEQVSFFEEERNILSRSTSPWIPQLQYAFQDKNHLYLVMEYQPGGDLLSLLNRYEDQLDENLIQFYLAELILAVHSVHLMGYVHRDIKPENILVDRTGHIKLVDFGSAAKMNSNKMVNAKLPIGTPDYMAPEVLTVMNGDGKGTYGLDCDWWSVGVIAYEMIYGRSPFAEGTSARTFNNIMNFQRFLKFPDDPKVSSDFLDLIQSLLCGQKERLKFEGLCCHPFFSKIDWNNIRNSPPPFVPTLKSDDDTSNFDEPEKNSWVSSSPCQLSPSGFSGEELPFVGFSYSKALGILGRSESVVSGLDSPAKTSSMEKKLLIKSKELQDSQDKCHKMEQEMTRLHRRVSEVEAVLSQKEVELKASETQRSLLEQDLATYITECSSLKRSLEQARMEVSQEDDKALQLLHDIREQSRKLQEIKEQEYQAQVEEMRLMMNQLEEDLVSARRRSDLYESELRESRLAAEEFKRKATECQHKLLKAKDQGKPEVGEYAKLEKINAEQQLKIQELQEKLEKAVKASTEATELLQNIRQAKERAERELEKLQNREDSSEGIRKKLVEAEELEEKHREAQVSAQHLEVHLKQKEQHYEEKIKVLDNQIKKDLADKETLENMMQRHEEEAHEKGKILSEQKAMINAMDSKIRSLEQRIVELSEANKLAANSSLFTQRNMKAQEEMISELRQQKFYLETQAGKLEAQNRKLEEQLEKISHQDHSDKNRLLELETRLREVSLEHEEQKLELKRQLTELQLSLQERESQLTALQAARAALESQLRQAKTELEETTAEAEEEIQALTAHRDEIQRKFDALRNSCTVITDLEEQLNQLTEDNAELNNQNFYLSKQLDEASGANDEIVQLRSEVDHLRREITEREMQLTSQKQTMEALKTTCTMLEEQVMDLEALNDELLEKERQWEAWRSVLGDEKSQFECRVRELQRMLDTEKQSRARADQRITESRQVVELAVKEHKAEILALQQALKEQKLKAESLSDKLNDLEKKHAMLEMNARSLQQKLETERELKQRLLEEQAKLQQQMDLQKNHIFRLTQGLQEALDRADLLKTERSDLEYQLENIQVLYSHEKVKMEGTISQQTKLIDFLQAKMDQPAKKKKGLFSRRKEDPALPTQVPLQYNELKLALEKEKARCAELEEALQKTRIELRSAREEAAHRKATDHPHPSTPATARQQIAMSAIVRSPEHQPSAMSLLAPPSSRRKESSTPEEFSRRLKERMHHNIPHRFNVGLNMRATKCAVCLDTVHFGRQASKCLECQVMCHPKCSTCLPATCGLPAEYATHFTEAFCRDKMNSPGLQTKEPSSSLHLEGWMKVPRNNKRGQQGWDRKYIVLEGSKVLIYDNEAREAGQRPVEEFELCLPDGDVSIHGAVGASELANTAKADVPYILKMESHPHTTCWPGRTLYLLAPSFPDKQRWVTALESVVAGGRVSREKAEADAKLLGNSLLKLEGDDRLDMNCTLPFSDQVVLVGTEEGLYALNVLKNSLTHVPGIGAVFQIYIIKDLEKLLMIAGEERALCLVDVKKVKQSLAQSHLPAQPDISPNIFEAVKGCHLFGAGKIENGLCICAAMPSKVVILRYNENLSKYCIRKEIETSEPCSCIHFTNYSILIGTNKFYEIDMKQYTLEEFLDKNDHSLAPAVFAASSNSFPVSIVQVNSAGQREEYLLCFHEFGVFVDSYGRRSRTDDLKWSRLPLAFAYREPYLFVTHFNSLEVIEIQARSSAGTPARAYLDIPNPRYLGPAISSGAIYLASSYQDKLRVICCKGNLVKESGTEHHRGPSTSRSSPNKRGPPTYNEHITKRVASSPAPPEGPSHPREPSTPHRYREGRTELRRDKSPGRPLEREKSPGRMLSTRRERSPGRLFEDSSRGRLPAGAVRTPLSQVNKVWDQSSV
The target of experiment [7] is T2, Serine/threonine-protein kinase PLK4 (Homo sapiens) (UniProt O00444).
T2 sequence (whole entry): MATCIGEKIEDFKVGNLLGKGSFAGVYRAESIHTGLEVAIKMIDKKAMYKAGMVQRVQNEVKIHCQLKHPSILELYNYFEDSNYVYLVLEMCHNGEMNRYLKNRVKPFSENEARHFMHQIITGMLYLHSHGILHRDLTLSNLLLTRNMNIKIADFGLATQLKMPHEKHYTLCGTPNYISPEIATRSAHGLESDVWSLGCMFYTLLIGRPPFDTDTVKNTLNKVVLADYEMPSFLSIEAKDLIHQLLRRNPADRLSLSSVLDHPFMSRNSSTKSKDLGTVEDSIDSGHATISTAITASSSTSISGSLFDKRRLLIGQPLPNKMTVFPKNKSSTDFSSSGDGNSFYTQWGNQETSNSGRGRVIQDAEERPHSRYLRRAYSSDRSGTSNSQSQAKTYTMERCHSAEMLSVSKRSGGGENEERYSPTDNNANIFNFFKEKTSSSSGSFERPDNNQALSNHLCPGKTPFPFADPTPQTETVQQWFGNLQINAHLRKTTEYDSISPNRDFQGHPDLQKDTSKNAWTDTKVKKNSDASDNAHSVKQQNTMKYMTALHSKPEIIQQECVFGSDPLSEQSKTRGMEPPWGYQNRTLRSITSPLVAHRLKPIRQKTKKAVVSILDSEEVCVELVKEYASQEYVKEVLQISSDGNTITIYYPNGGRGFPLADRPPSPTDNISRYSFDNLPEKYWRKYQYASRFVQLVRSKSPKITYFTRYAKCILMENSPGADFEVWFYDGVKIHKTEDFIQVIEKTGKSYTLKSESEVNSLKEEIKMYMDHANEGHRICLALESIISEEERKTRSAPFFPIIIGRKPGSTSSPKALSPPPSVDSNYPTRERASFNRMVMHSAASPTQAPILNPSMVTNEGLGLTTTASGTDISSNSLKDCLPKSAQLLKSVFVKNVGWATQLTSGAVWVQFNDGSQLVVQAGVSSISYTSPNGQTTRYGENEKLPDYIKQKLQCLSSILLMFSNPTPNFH
Briefly: Selectivity interaction (Kinase panel (DSF assay)) EUB0001489b PLK4. (In general: Differential scanning fluorimetry follows unfolding on heating by fluorescence.)

Experiment [8] deals with T3, Cyclin-G-associated kinase (Homo sapiens) (UniProt O14976).
T3 sequence (whole entry): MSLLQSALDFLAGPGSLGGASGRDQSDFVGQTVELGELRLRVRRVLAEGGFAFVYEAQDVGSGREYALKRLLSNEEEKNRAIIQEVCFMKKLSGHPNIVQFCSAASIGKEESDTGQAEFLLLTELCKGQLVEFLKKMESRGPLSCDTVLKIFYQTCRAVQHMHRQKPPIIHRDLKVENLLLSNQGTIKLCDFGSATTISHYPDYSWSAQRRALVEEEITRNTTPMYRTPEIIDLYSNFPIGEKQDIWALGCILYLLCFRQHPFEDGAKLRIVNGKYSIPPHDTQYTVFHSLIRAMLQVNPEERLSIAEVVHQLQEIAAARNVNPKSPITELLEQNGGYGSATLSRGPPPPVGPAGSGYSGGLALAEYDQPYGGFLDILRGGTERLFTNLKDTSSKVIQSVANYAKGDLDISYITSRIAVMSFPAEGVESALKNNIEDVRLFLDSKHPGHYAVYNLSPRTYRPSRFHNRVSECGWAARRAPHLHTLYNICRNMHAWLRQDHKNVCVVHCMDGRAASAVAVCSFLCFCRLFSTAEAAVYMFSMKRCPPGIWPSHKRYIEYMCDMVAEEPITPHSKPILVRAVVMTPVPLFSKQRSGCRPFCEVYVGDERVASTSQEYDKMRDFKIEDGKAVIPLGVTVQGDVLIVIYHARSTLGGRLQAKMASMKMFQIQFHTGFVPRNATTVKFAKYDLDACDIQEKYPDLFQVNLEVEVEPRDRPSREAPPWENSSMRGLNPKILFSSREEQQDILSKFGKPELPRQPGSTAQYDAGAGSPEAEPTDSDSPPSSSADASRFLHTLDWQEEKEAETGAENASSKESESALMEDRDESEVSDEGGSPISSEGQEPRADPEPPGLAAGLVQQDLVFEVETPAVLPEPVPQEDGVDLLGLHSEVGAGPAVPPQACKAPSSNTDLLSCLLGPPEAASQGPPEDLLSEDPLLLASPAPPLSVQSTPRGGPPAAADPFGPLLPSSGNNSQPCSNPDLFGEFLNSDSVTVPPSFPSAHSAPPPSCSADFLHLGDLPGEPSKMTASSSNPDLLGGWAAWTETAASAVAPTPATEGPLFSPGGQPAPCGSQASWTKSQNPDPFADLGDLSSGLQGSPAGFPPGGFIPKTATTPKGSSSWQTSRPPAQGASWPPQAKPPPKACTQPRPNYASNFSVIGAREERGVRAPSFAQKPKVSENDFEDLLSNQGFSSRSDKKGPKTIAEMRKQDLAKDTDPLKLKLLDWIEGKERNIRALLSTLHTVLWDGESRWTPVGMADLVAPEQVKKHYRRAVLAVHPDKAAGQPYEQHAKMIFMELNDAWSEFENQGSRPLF
Briefly: Selectivity interaction (KinomeScan (DiscoverX)) EUB0000595a GAK. The following applies: at 10 µM.

Sequence of Receptor tyrosine-protein kinase erbB-4 (Q15303 whole entry): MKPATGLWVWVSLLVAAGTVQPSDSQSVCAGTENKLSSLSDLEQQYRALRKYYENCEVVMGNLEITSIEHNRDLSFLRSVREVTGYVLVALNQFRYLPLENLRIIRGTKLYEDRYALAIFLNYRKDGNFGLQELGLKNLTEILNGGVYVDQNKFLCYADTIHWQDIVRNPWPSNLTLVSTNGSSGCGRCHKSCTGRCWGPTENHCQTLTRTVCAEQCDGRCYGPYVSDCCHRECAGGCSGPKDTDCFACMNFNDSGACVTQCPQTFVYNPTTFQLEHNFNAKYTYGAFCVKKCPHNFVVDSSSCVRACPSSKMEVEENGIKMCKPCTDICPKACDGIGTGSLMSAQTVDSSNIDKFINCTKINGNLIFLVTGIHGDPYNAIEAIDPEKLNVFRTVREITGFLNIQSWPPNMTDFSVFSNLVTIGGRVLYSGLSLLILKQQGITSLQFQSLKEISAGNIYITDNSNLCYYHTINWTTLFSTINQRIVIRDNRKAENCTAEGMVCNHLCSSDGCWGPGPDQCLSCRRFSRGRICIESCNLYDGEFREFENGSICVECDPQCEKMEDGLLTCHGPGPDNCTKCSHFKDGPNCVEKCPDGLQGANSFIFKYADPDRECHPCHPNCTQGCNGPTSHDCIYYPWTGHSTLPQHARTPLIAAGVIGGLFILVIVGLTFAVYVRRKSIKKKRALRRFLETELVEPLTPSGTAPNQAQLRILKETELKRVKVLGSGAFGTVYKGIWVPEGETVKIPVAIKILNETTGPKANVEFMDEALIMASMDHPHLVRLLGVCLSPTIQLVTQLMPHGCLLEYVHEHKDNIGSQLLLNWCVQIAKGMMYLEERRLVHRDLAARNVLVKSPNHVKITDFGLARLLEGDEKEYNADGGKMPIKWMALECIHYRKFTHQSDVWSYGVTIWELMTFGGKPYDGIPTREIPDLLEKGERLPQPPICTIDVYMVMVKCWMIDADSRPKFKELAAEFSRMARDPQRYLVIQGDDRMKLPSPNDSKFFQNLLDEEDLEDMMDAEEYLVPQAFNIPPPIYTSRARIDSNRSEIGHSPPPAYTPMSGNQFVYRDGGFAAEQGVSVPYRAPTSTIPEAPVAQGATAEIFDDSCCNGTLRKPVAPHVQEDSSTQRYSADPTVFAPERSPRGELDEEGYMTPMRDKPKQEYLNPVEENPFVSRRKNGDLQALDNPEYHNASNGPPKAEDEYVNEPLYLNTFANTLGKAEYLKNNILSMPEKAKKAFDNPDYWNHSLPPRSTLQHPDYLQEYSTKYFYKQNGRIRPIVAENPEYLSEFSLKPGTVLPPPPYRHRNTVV
Sequence of Serine/threonine-protein kinase pim-2 (Q9P1W9 whole entry, looked up): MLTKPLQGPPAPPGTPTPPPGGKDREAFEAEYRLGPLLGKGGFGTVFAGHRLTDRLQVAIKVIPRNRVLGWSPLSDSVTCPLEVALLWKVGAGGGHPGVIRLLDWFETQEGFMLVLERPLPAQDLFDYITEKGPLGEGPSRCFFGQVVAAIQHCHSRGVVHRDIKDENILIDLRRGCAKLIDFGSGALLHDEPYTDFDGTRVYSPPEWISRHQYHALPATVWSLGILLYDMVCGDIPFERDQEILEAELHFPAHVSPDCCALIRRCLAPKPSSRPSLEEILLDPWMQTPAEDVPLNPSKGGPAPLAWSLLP

With `CN(C)CCOc1ccc(-c2nc(-c3ccncc3)c(-c3ccc4c(c3)CC/C4=N\O)[nH]2)cc1`, the % of control in experiment [1] was found to be 78%; in experiment [2], 83%. For `CN1Cc2nccc(-c3cn(C)nc3-c3ccc(F)cc3)c2C1=O`, in experiment [3], the % of inhibition was determined as 15%.

On to `CC[C@@H]1[C@H](F)C(=O)N[C@@H]1COc1nccc2cc(C(N)=O)c(OC)cc12` [ZIMLOVISERTIB], for which the results for the % of inhibition in experiment [4] and in experiment [5] were 9% and -0.472%, respectively. Consider `CCN(CC)CCCCNc1ncc2cc(-c3cc(OC)cc(OC)c3)c(NC(=O)NC(C)(C)C)nc2n1`, for which the % of control in experiment [6] was 100%.

`CN1CCN(C(=O)c2ccc3cc2OCCOCCNc2ccn4ncc-3c4n2)CC1` registered a dTM in experiment [7] of 4 K. `COCC(=O)NC/C=C/c1ccc2ncnc(Nc3ccc(Oc4ccc(C)nc4)c(C)c3)c2c1` [CP-724714] yielded a % of control in experiment [8] of 84%.
